Assay results: ChEMBL document CHEMBL1201862, “PubChem BioAssay data set” (2004)
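Step 1: Grow cells in 96-well plates. Step 2: Expose to compound for 48 hours at 5 concentrations. Step 3: Interpolate endpoints linearly; if unreached, use highest concentration. GI50 is the concentration that inhibits growth by half.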 The source made the active and inactive calls. Cut-off read from the data, not from the text of the source: active = GI50 up to about 1.1 µM and inactive = higher.

Assays:
Experiment in all cases: DTP human tumour cell line panel, 48 h
CCRF-CEM = tested on: CCRF-CEM
HCC 2998 = tested on: HCC 2998
786-0 = tested on: 786-0
OVCAR-5 = tested on: OVCAR-5
RXF 393 = tested on: RXF 393
OVCAR-4 = tested on: OVCAR-4
NCI-H522 = tested on: NCI-H522
M14 = tested on: M14
SNB-19 = tested on: SNB-19
DU-145 = tested on: DU-145
EKVX = tested on: EKVX
HOP-62 = tested on: HOP-62
KM12 = tested on: KM12
NCI-H23 = tested on: NCI-H23
A498 = tested on: A498
T47D = tested on: T47D
SK-MEL-2 = tested on: SK-MEL-2
LOX IMVI = tested on: LOX IMVI
NCI-H226 = tested on: NCI-H226
TK-10 = tested on: TK-10

Measured: GI50

CCOc1cc(NC(C)=O)ccc1C(=O)NNS(=O)(=O)c1ccc(NC(C)=O)cc1
inactive: CCRF-CEM 38.9 µM | HCC 2998 > 100 µM | 786-0 42.3 µM | OVCAR-5 > 100 µM | RXF 393 76.7 µM | OVCAR-4 73.6 µM | NCI-H522 37.4 µM | M14 56 µM | SNB-19 77.4 µM | DU-145 > 100 µM | EKVX 56 µM | HOP-62 63.5 µM | KM12 41.5 µM | NCI-H23 97.3 µM | A498 51.8 µM | T47D > 100 µM | SK-MEL-2 28.8 µM | LOX IMVI 55.7 µM | NCI-H226 25.2 µM

COc1cc([C@@H]2c3cc4c(cc3[C@@H](/N=C/c3ccc(C(=O)O[C@H]5C[C@H]6OC[C@@]6(OC(C)=O)[C@H]6[C@H](OC(=O)c7ccccc7)[C@]7(O)C[C@H](OC(=O)[C@H](OC(=O)c8ccc(/C=N/[C@@H]9c%10cc%11c(cc%10[C@@H](c%10cc(OC)c(O)c(OC)c%10)[C@H]%10C(=O)OC[C@@H]%109)OCO%11)cc8)[C@@H](NC(=O)c8ccccc8)c8ccccc8)C(C)=C([C@@H](OC(C)=O)C(=O)[C@]56C)C7(C)C)cc3)C3COC(=O)C32)OCO4)cc(C)c1O (some centres not stated)
inactive: CCRF-CEM 30 µM | HCC 2998 > 50 µM | 786-0 7.55 µM | OVCAR-5 > 15.5 µM | RXF 393 2.96 µM | OVCAR-4 > 29.6 µM | NCI-H522 9.06 µM | M14 6.49 µM | SNB-19 17.5 µM | DU-145 24.5 µM | EKVX 14.5 µM | HOP-62 12.7 µM | KM12 22.3 µM | NCI-H23 17.2 µM | A498 5.16 µM | T47D > 50 µM | SK-MEL-2 13.7 µM | LOX IMVI 22.9 µM | TK-10 > 50 µM | NCI-H226 10.9 µM

O=C(NI1OC(=O)c2ccccc21)c1ccc(Cl)cc1
inactive: CCRF-CEM 85.5 µM | HCC 2998 76.2 µM | 786-0 > 100 µM | OVCAR-5 > 100 µM | RXF 393 > 100 µM | OVCAR-4 > 100 µM | NCI-H522 14.1 µM | M14 > 100 µM | DU-145 > 100 µM | EKVX > 100 µM | HOP-62 > 100 µM | KM12 > 100 µM | NCI-H23 > 100 µM | A498 > 100 µM | T47D > 100 µM | SK-MEL-2 > 100 µM | LOX IMVI > 100 µM | TK-10 > 100 µM | NCI-H226 60.4 µM

Cc1ccc(/C=C2\CCC/C(=C\c3ccc(O)c(CN4CCCCC4)c3)C2=O)cc1
inactive: HCC 2998 4.46 µM | 786-0 3.72 µM | OVCAR-5 17.4 µM | RXF 393 14.1 µM | OVCAR-4 11.1 µM | NCI-H522 3.85 µM | M14 3.73 µM | SNB-19 16.2 µM | DU-145 4.91 µM | EKVX 12.6 µM | HOP-62 15.3 µM | KM12 3.01 µM | NCI-H23 5.64 µM | A498 3.1 µM | T47D 13.4 µM | SK-MEL-2 19.9 µM | LOX IMVI 3.18 µM | TK-10 14.6 µM | NCI-H226 7.55 µM

COc1ccc(OC)c2sc(N3C(=O)/C(=C/c4ccc(Cl)cc4)N=C3c3ccccc3)nc12
inactive: CCRF-CEM 37 µM | HCC 2998 80.2 µM | 786-0 73.3 µM | OVCAR-5 > 100 µM | RXF 393 78.5 µM | NCI-H522 48.9 µM | M14 > 100 µM | SNB-19 > 100 µM | DU-145 > 100 µM | EKVX > 100 µM | HOP-62 > 100 µM | KM12 60 µM | NCI-H23 > 100 µM | A498 > 100 µM | T47D 23.3 µM | SK-MEL-2 > 100 µM | LOX IMVI 34.2 µM | TK-10 72.6 µM

CN(C)c1ccc(/C=C2\N=C(c3ccccc3)N(c3nc4ccc(Sc5ccccc5)cc4[nH]3)C2=O)cc1
inactive: CCRF-CEM 16.7 µM | HCC 2998 17.4 µM | 786-0 42.2 µM | OVCAR-5 41.8 µM | RXF 393 50.2 µM | OVCAR-4 40.3 µM | NCI-H522 29.2 µM | M14 43.6 µM | SNB-19 49.1 µM | DU-145 77.4 µM | EKVX 40.7 µM | HOP-62 33.1 µM | KM12 27.8 µM | NCI-H23 47.1 µM | A498 37.6 µM | T47D 44 µM | SK-MEL-2 20.8 µM | LOX IMVI 45.2 µM | TK-10 23.5 µM

N#Cc1nc(C(CO)N(Cc2ccccc2)C(=O)O)oc1N (configuration not stated)
inactive: HCC 2998 > 100 µM | 786-0 > 100 µM | OVCAR-5 > 100 µM | RXF 393 > 100 µM | OVCAR-4 > 100 µM | NCI-H522 12.4 µM | M14 > 100 µM | DU-145 > 100 µM | EKVX > 100 µM | HOP-62 > 100 µM | KM12 > 100 µM | NCI-H23 > 100 µM | A498 > 100 µM | T47D > 100 µM | SK-MEL-2 > 100 µM | LOX IMVI > 100 µM | TK-10 > 100 µM | NCI-H226 > 100 µM
